Laboratory results reported in ChEMBL document CHEMBL4382229, “Benzofuran derivatives and their anti-tubercular, anti-bacterial activities” (Eur J Med Chem, 2019).
Values after ≈ are worked out from the molar mass of the structure shown.

Tests used:
Assay type in all cases: functional
[1] = test system: Mycobacterium tuberculosis; test: Antimycobacterial activity against Mycobacterium tuberculosis H37Rv ATCC 27294 after 5 days by microplate alamar blue assay; settings: H37Rv ATCC 27294, 120 h
Bacillus subtilis [2] = test: Potency index, ratio of ciprofloxacin MIC to test compound MIC for Bacillus subtilis
Bacillus subtilis [3] = test: Antibacterial activity against Bacillus subtilis by broth dilution method
Escherichia coli [4] = test: Antibacterial activity against Escherichia coli by broth dilution method
Pseudomonas aeruginosa [5] = test: Antibacterial activity against Pseudomonas aeruginosa by broth dilution method
Staphylococcus aureus [6] = test: Antibacterial activity against Staphylococcus aureus by broth dilution method
Staphylococcus aureus [7] = test: Potency index, ratio of ciprofloxacin MIC to test compound MIC for Staphylococcus aureus
Escherichia coli [8] = test: Potency index, ratio of ciprofloxacin MIC to test compound MIC for Escherichia coli
Escherichia coli [9] = test: Antibacterial activity against Escherichia coli assessed as zone of inhibition at 1 mg/ml after 32 hrs by agar-well diffusion method; settings: read-out: IZ
Bacillus spizizenii = test: Antibacterial activity against Bacillus subtilis ATCC 6633 after 24 hrs; settings: ATCC 6633, 24 h
Pseudomonas aeruginosa [10] = test: Antibacterial activity against Pseudomonas aeruginosa assessed as zone of inhibition at 50 ug/ml after 3 days by filter paper disc method; settings: 72 h, read-out: IZ
Klebsiella pneumoniae = test: Antibacterial activity against Klebsiella pneumoniae assessed as zone of inhibition at 1 mg/ml after 32 hrs by agar-well diffusion method; settings: read-out: IZ
Escherichia coli [11] = test: Antibacterial activity against Escherichia coli assessed as zone of inhibition at 50 ug/ml after 3 days by filter paper disc method; settings: 72 h, read-out: IZ
Staphylococcus aureus [12] = test: Antibacterial activity against Staphylococcus aureus assessed as zone of inhibition at 1 mg/ml after 32 hrs by agar-well diffusion method; settings: read-out: IZ
Escherichia coli [13] = test: Antibacterial activity against Escherichia coli ATCC 25922 after 24 hrs; settings: ATCC 25922, 24 h
Proteus vulgaris [14] = test: Antibacterial activity against Proteus vulgaris after 24 hrs
Bacillus subtilis [15] = test: Antibacterial activity against Bacillus subtilis assessed as zone of inhibition at 50 ug/ml after 3 days by filter paper disc method; settings: 72 h, read-out: IZ
Staphylococcus aureus [16] = test: Antibacterial activity against Staphylococcus aureus ATCC 25923 after 24 hrs; settings: ATCC 25923, 24 h
Staphylococcus aureus [17] = test: Antibacterial activity against Staphylococcus aureus assessed as zone of inhibition at 50 ug/ml after 3 days by filter paper disc method; settings: 72 h, read-out: IZ
Pseudomonas aeruginosa [18] = test: Antibacterial activity against Pseudomonas aeruginosa assessed as zone of inhibition at 1 mg/ml after 32 hrs by agar-well diffusion method; settings: read-out: IZ
Escherichia coli [19] = test: Potency index, ratio of streptomycin MIC to test compound MIC for Escherichia coli MTCC 1559
Escherichia coli [20] = test: Antibacterial activity against Escherichia coli MTCC 1559 after 24 hrs by broth dilution method; settings: MTCC 1559, 24 h
Bacillus subtilis [21] = test: Antibacterial activity against Bacillus subtilis MTCC 1134 after 24 hrs by broth dilution method; settings: MTCC 1134, 24 h
Pseudomonas aeruginosa [22] = test: Potency index, ratio of streptomycin MIC to test compound MIC for Pseudomonas aeruginosa MTCC 1034
Bacillus subtilis [23] = test: Potency index, ratio of streptomycin MIC to test compound MIC for Bacillus subtilis MTCC 1134
Pseudomonas aeruginosa [24] = test: Antibacterial activity against Pseudomonas aeruginosa MTCC 1034 after 24 hrs by broth dilution method; settings: MTCC 1034, 24 h
Staphylococcus aureus [25] = test: Antibacterial activity against Staphylococcus aureus assessed as diameter of inhibition zone at 250 ug/ml after 24 hrs by disc diffusion method; settings: read-out: DIZ
Staphylococcus aureus [26] = test: Antibacterial activity against Staphylococcus aureus NCIM 2079 assessed as zone of inhibition at 1 ug/ml after 24 hrs by agar diffusion method; settings: NCIM 2079, 24 h, read-out: IZ
Escherichia coli [27] = test: Antibacterial activity against Escherichia coli NCIM 2064 assessed as zone of inhibition at 1 ug/ml after 24 hrs by agar diffusion method; settings: NCIM 2064, 24 h, read-out: IZ
Pseudomonas aeruginosa [28] = test: Antibacterial activity against Pseudomonas aeruginosa NCIB 8650 assessed as zone of inhibition at 1 ug/ml after 24 hrs by agar diffusion method; settings: NCIB 8650, 24 h, read-out: IZ
Pseudomonas aeruginosa [29] = test: Antibacterial activity against Pseudomonas aeruginosa ATCC 27953 assessed as diameter of inhibition zone at 5 ug/ml after 24 hrs by agar disc diffusion method; settings: ATCC 27953, 24 h, read-out: IZ
Bacillus subtilis [30] = test: Antibacterial activity against Bacillus subtilis NCIM 2439 assessed as zone of inhibition at 1 ug/ml after 24 hrs by agar diffusion method; settings: NCIM 2439, 24 h, read-out: IZ
Escherichia coli [31] = test: Antibacterial activity against Escherichia coli assessed as diameter of inhibition zone at 250 ug/ml after 24 hrs by disc diffusion method; settings: read-out: DIZ
Escherichia coli [32] = test: Antibacterial activity against Escherichia coli ATCC 25922 assessed as diameter of inhibition zone at 5 ug/ml after 24 hrs by agar disc diffusion method; settings: ATCC 25922, 24 h, read-out: IZ
Streptococcus pyogenes = test: Antibacterial activity against Streptococcus pyogenes MTCC 442 assessed as zone of inhibition at 25 ug/ml by agar well diffusion method; settings: read-out: IZ
Pseudomonas aeruginosa [33] = test: Antibacterial activity against Pseudomonas aeruginosa MTCC 424 assessed as zone of inhibition at 25 ug/ml by agar well diffusion method; settings: read-out: IZ
Staphylococcus aureus [34] = test: Antibacterial activity against Staphylococcus aureus MTCC 96 assessed as zone of inhibition at 25 ug/ml by agar well diffusion method; settings: read-out: IZ
Escherichia coli [35] = test: Antibacterial activity against Escherichia coli MTCC 443 assessed as zone of inhibition at 25 ug/ml by agar well diffusion method; settings: read-out: IZ
Proteus vulgaris [36] = test: Potency index, ratio of norfloxacin MIC to test compound MIC for Proteus vulgaris

With `Cc1c(C(=O)NN)oc2ccccc12` the MIC [1] was 6.25 µg/mL (≈ 32.9 µM).
In the case of `Cc1ccc2occ(-c3cc4ccccc4oc3=O)c2c1`, the Ratio (Bacillus subtilis [2]) is reported as “>=5”, the MIC (Bacillus subtilis [3]) is reported as 0.4 µg/mL (≈ 1.45 µM) and the MIC (Escherichia coli [4]) is reported as 0.2 µg/mL (≈ 0.724 µM). The MIC (Pseudomonas aeruginosa [5]) was 6.25 to 100 µg/mL (≈ 22.6 to 362 µM), the MIC (Staphylococcus aureus [6]) was 0.2 µg/mL (≈ 0.724 µM) and the Ratio (Staphylococcus aureus [7]) was “>=5”. For the same compound, the Ratio (Escherichia coli [8]) was “>=5”.
Compound `CC1(C)S[C@@H]2[C@H](NC(=O)[C@H](N)c3ccccc3)C(=O)N2[C@H]1C(=O)O` [AMPICILLIN] has a zone of inhibition at 1000 µg/mL (Escherichia coli [9]) of 20 to 28 mm, an MIC (Bacillus spizizenii) of 3.9 µg/mL (≈ 11.2 µM) and a zone of inhibition at 50 µg/mL (Pseudomonas aeruginosa [10]) of 10 to 30 mm. For the same compound, the zone of inhibition at 1000 µg/mL (Klebsiella pneumoniae) was 20 to 28 mm, the zone of inhibition at 50 µg/mL (Escherichia coli [11]) was 10 to 30 mm and the zone of inhibition at 1000 µg/mL (Staphylococcus aureus [12]) was 20 to 28 mm. For the same compound, the MIC (Escherichia coli [13]) was 3.9 µg/mL (≈ 11.2 µM), the MIC (Proteus vulgaris [14]) was 3.9 µg/mL (≈ 11.2 µM) and the zone of inhibition at 50 µg/mL (Bacillus subtilis [15]) was 10 to 30 mm. It also gave an MIC (Staphylococcus aureus [16]) of 0.48 µg/mL (≈ 1.37 µM), a zone of inhibition at 50 µg/mL (Staphylococcus aureus [17]) of 10 to 30 mm and a zone of inhibition at 1000 µg/mL (Pseudomonas aeruginosa [18]) of 20 to 28 mm.
In the case of `Cc1ccc(-c2cc(-c3cc4ccccc4o3)nc(N)n2)s1`, the Ratio (Escherichia coli [19]) is reported as >3, the MIC (Escherichia coli [20]) is reported as 4.32 to 6.32 µg/mL (≈ 14.1 to 20.6 µM) and the MIC (Bacillus subtilis [21]) is reported as 4.32 to 6.32 µg/mL (≈ 14.1 to 20.6 µM). For the same compound, the Ratio (Pseudomonas aeruginosa [22]) was >3, the Ratio (Bacillus subtilis [23]) was >3 and the MIC (Pseudomonas aeruginosa [24]) was 4.32 to 6.32 µg/mL (≈ 14.1 to 20.6 µM).
With `O=C(N[C@H](CO)[C@H](O)c1ccc([N+](=O)[O-])cc1)C(Cl)Cl` [CHLORAMPHENICOL] the zone of inhibition at 250 µg/mL (Staphylococcus aureus [25]) was 27 mm, the zone of inhibition at 1 µg/mL (Staphylococcus aureus [26]) was 21 to 32 mm and the zone of inhibition at 1 µg/mL (Escherichia coli [27]) was 21 to 32 mm. It also gave a zone of inhibition at 1 µg/mL (Pseudomonas aeruginosa [28]) of 21 to 32 mm, a zone of inhibition at 5 µg/mL (Pseudomonas aeruginosa [29]) of 21 to 32 mm and a zone of inhibition at 1 µg/mL (Bacillus subtilis [30]) of 21 to 32 mm. The zone of inhibition at 250 µg/mL (Escherichia coli [31]) was 17 mm and the zone of inhibition at 5 µg/mL (Escherichia coli [32]) was 21 to 32 mm.
In the case of `COc1cc(OC)c(-c2cc3cc(C(=O)/C=C/c4ccc5occc5c4)cc(OC)c3o2)c(OC)c1`, the zone of inhibition at 25 µg/mL (Streptococcus pyogenes) is reported as 21 to 28 mm, the zone of inhibition at 25 µg/mL (Pseudomonas aeruginosa [33]) is reported as 21 to 28 mm and the zone of inhibition at 25 µg/mL (Staphylococcus aureus [34]) is reported as 21 to 28 mm. For the same compound, the zone of inhibition at 25 µg/mL (Escherichia coli [35]) was 21 to 28 mm.
`O=C1Nc2c(cccc2[N+](=O)[O-])/C1=N/NC(=O)c1cc2ccccc2o1` showed a Ratio (Proteus vulgaris [36]) of 2 and an MIC (Proteus vulgaris [14]) of 31.2 µg/mL (≈ 89.2 µM).
Work on `COc1cc(OC)c(-c2cc3cc(C(=O)NN)cc(OC)c3o2)c(OC)c1` yielded a zone of inhibition at 25 µg/mL (Streptococcus pyogenes) of 21 to 27 mm, a zone of inhibition at 25 µg/mL (Pseudomonas aeruginosa [33]) of 21 to 27 mm and a zone of inhibition at 25 µg/mL (Staphylococcus aureus [34]) of 21 to 27 mm. It also gave a zone of inhibition at 25 µg/mL (Escherichia coli [35]) of 21 to 27 mm.
In the case of `CCn1cc(C(=O)O)c(=O)c2cc(F)c(N3CCNCC3)cc21` [NORFLOXACIN], the MIC (Proteus vulgaris [14]) is reported as 62.5 µg/mL (≈ 196 µM), the zone of inhibition at 25 µg/mL (Streptococcus pyogenes) is reported as 19 to 25 mm and the zone of inhibition at 25 µg/mL (Pseudomonas aeruginosa [33]) is reported as 19 to 25 mm. For the same compound, the zone of inhibition at 25 µg/mL (Staphylococcus aureus [34]) was 19 to 25 mm and the zone of inhibition at 25 µg/mL (Escherichia coli [35]) was 19 to 25 mm.
Compound `O=C1Nc2c(O)cccc2/C1=N/NC(=O)c1cc2ccccc2o1` has a Ratio (Proteus vulgaris [36]) of 2 and an MIC (Proteus vulgaris [14]) of 31.2 µg/mL (≈ 97.3 µM).
In the case of `CN[C@@H]1[C@H](O[C@H]2[C@H](O[C@H]3[C@H](O)[C@@H](O)[C@H](N=C(N)N)[C@@H](O)[C@@H]3N=C(N)N)O[C@@H](C)[C@]2(O)C=O)O[C@@H](CO)[C@H](O)[C@H]1O` [STREPTOMYCIN], the MIC (Escherichia coli [20]) is reported as 17.2 to 19.4 µg/mL (≈ 29.7 to 33.3 µM), the MIC [1] is reported as 6.25 µg/mL (≈ 10.7 µM) and the MIC (Bacillus subtilis [21]) is reported as 17.2 to 19.4 µg/mL (≈ 29.7 to 33.3 µM). For the same compound, the MIC (Pseudomonas aeruginosa [24]) was 17.2 to 19.4 µg/mL (≈ 29.7 to 33.3 µM).
